According to patent publication US9012443B2 (Amgen Inc., priority 2011, dated 2015):
Structures can show the parent of a compound that is named as a salt.

How the values were obtained:
Nav 1.7 [1] = molecular target: T1, Nav 1.7 (Homo sapiens (Human), UniProt Q15858); test: Nav 1.7 in vitro PX assay (PatchXpress whole cell voltage clamp); type: cell-based; details: 293 cells, human Nav1.7, partially inactivated state; read-out: Nav1.7 PX IC50 IP
In short: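 HEK293 cells stably expressing human Nav1.7, whole-cell voltage clamp on PatchXpress, held at potential giving 20–50% inactivation; current elicited by 20 msec pulse to −10 mV.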

Nav 1.7 [2] = molecular target: T1, Nav 1.7; test: Nav 1.7 IWQ in vitro assay (IonWorks Quattro population patch-clamp); type: cell-based; details: 293 cells stably transfected with Nav 1.7; second part of table; read-out: Nav1.7 IWQ IC50 IP
In short: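 HEK293 cells stably expressing Nav 1.7, recorded by automated population patch-clamp with a train of depolarizations producing increasing inactivation. Single compound concentration added during 3–8 min unclamped period, then same protocol repeated. Leak-corrected current at 26th pulse to −20 mV gave percent block (duplicate); IC50 fitted from concentration–block curves.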

T1 sequence (Q15858 whole entry): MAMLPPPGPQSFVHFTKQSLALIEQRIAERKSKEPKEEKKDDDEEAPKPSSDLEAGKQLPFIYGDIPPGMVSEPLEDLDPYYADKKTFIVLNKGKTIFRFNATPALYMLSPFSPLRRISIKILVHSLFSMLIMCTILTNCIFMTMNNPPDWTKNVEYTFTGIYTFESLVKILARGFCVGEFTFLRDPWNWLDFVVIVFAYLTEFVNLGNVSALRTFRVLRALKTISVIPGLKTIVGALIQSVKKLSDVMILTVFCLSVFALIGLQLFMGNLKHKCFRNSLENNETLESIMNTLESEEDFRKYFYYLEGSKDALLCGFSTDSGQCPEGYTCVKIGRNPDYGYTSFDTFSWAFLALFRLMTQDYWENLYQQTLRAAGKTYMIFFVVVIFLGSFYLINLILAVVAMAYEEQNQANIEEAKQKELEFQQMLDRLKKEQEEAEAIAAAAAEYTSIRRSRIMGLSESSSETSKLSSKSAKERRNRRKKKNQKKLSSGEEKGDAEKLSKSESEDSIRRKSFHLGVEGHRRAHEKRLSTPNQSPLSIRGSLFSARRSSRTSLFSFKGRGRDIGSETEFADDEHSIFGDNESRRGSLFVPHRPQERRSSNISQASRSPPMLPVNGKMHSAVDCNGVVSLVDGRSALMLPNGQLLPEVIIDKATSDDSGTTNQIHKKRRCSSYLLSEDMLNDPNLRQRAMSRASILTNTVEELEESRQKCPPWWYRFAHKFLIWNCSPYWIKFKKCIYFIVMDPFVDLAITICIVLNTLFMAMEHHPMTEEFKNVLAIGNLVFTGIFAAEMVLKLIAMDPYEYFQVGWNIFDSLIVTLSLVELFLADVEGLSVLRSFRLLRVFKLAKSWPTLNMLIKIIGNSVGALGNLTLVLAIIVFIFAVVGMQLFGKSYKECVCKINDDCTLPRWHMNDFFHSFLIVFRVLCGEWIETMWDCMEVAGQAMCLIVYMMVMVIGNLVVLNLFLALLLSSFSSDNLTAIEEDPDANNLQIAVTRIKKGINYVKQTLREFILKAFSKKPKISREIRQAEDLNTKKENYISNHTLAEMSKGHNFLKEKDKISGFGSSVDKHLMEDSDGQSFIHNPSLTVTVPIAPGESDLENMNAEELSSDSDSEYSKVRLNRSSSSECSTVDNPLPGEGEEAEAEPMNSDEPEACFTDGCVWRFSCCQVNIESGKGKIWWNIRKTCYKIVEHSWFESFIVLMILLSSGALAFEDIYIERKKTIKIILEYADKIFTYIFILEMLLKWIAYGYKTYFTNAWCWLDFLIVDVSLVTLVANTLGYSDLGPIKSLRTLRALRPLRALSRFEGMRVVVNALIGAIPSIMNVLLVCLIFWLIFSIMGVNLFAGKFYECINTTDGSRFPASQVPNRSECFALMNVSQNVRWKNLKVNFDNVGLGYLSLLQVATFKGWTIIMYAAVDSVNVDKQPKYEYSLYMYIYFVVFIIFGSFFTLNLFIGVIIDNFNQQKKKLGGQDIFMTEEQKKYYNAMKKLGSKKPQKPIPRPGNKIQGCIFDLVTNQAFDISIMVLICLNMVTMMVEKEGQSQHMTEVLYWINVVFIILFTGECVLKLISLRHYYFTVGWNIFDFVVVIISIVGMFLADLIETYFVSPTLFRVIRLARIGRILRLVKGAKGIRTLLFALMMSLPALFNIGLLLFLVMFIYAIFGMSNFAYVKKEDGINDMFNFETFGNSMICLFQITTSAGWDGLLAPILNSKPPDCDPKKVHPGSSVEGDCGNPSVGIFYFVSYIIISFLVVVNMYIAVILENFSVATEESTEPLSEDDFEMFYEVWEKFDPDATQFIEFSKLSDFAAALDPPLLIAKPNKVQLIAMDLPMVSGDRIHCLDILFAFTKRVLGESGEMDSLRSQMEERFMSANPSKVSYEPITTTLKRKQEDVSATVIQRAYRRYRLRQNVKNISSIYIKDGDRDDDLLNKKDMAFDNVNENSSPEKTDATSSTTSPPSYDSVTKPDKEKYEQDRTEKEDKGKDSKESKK

Row | SMILES | IC50 (Nav 1.7 [1]) | IC50 (Nav 1.7 [2])
1 | COc1cc(C(F)(F)F)ccc1-c1nccc2cc(S(=O)(=O)Nc3nccs3)ccc12 [Example 196, 1-(2-METHOXY-4-(TRIFLUOROMETHYL)PHENYL)-N-(THIAZOL-2-YL)ISOQUINOLINE-6-SULFONAMIDE] | 298 nM | 10 nM
2 | COc1cc2cc(S(=O)(=O)Nc3nccs3)ccc2c(-c2ccc(C(F)(F)F)cc2OC)n1 [Example 221, 3-METHOXY-1-(2-METHOXY-4-(TRIFLUOROMETHYL)PHENYL)-N-(THIAZOL-2-YL)ISOQUINOLINE-6-SULFONAMIDE] | 1530 nM | 110 nM
3 | COc1cc(C(F)(F)F)ccc1-c1ncc(F)c2cc(S(=O)(=O)Nc3ccncn3)ccc12 [Example 216, 4-FLUORO-1-(2-METHOXY-4-(TRIFLUOROMETHYL)PHENYL)-N-(PYRIMIDIN-4-YL)ISOQUINOLINE-6-SULFONAMIDE] | 559 nM | 40 nM
4 | O=S(=O)(Nc1ccncn1)c1ccc2c(OCc3nccn3Cc3ccc(Cl)cc3)nccc2c1 [Example 133, 1-((1-(4-CHLOROBENZYL)-1H-IMIDAZOL-2-YL)METHOXY)-N-(PYRIMIDIN-4-YL)ISOQUINOLINE-6-SULFONAMIDE] | 34100 nM | 1830 nM
5 | COc1ccc(F)cc1-c1nccc2cc(S(=O)(=O)Nc3ccncn3)ccc12 [Example 148, 1-(5-FLUORO-2-METHOXYPHENYL)-N-(PYRIMIDIN-4-YL)ISOQUINOLINE-6-SULFONAMIDE] | 2410 nM | 80 nM
6 | COCCN1CCCC1c1nccc2cc(S(=O)(=O)Nc3nccs3)ccc12 (stereo not shown) [Example 246, 1-(1-(2-METHOXYETHYL)PYRROLIDIN-2-YL)-N-(THIAZOL-2-YL)ISOQUINOLINE-6-SULFONAMIDE] | 27400 nM | 2150 nM
7 | Cc1cc2cnn(C)c2cc1-c1nccc2cc(S(=O)(=O)Nc3ccncn3)ccc12 [Example 165] | > 30000 nM | 5430 nM
8 | O=S(=O)(Nc1ncns1)c1ccc2c(N3CCC[C@@H]3c3cccnc3)cccc2c1 (single isomer, unassigned) [Example 87] | 1320 nM | 460 nM
9 | O=S(=O)(Nc1nccs1)c1ccc2c(N3CCC(c4ccccc4)C3)nccc2c1 (stereo not shown) [Example 243, 1-(3-PHENYLPYRROLIDIN-1-YL)-N-(THIAZOL-2-YL)ISOQUINOLINE-6-SULFONAMIDE] | 10700 nM | 780 nM
10 | COc1cc(C(F)(F)F)ccc1-c1nccc2cc(S(=O)(=O)Nc3ncc(F)s3)ccc12 [Example 198, N-(5-FLUOROTHIAZOL-2-YL)-1-(2-METHOXY-4-(TRIFLUOROMETHYL)PHENYL)ISOQUINOLINE-6-SULFONAMIDE 2,2,2-TRIFLUOROACETATE] | 422 nM | 40 nM
11 | O=S(=O)(Nc1ccncn1)c1ccc2c(OCc3ncoc3-c3ccccc3)nccc2c1 [Example 130, 1-((5-PHENYLOXAZOL-4-YL)METHOXY)-N-(PYRIMIDIN-4-YL)ISOQUINOLINE-6-SULFONAMIDE] | 4510 nM | 500 nM
12 | O=S(=O)(Nc1nccs1)c1ccc2c(-c3ccn(-c4ccccc4)c3)nccc2c1 [Example 207, 1-(1-PHENYL-1H-PYRROL-3-YL)-N-(THIAZOL-2-YL)ISOQUINOLINE-6-SULFONAMIDE 2,2,2-TRIFLUOROACETATE] | 7290 nM | 2100 nM
13 | COc1ccccc1-c1nncc2cc(S(=O)(=O)Nc3ncc(F)s3)ccc12 [Example 258] | 1050 nM | 260 nM
14 | O=S(=O)(Nc1ccncn1)c1ccc2c(-c3ccc(C(F)(F)F)cc3)nccc2c1 [Example 141, N-(PYRIMIDIN-4-YL)-1-(4-(TRIFLUOROMETHYL)PHENYL)ISOQUINOLINE-6-SULFONAMIDE] | 29600 nM | 2300 nM
15 | COc1cc(-c2cccc(C#N)c2)ccc1-c1nccc2cc(S(=O)(=O)Nc3ccncn3)ccc12 [Example 200, 1-(3′-CYANO-3-METHOXY-[1,1′-BIPHENYL]-4-YL)-N-(PYRIMIDIN-4-YL)ISOQUINOLINE-6-SULFONAMIDE] | 424 nM | 30 nM
16 | COc1ccccc1-c1nccc2cc(S(=O)(=O)Nc3ncns3)ccc12 [Example 194, 1-(2-METHOXYPHENYL)-N-(1,2,4-THIADIAZOL-5-YL)ISOQUINOLINE-6-SULFONAMIDE] | 255 nM | 10 nM
17 | COc1cc(Cl)ccc1-c1ncc(F)c2cc(S(=O)(=O)Nc3ccncn3)ccc12 [Example 217, 1-(4-CHLORO-2-METHOXYPHENYL)-4-FLUORO-N-(PYRIMIDIN-4-YL)ISOQUINOLINE-6-SULFONAMIDE] | 692 nM | 40 nM
18 | COc1cc(-c2cccc(F)c2)ccc1-c1nccc2cc(S(=O)(=O)Nc3nccs3)ccc12 [Example 202, 1-(3′-FLUORO-3-METHOXY-[1,1′-BIPHENYL]-4-YL)-N-(THIAZOL-2-YL)ISOQUINOLINE-6-SULFONAMIDE 2,2,2-TRIFLUOROACETATE] | 508 nM | 340 nM
19 | COc1ccc(C)cc1-c1nccc2cc(S(=O)(=O)Nc3ccncn3)ccc12 [Example 149] | 2400 nM | 60 nM
20 | O=S(=O)(Nc1nccs1)c1ccc2c([C@@H]3CCCN3C3CCOCC3)cccc2c1 [Example 103, (S)-5-(1-(TETRAHYDRO-2H-PYRAN-4-YL)PYRROLIDIN-2-YL)-N-(THIAZOL-2-YL)NAPHTHALENE-2-SULFONAMIDE COMPOUND WITH DIETHYLAMINE (1:1)] | 14500 nM | 1580 nM
21 | COc1cc(-c2ccccc2)ccc1-c1cccc2cc(S(=O)(=O)Nc3ccncn3)ccc12 [Example 115] | 692 nM | 180 nM
22 | COc1cc(C(F)(F)F)ccc1-c1cncc2cc(S(=O)(=O)Nc3ccncn3)ccc12 [Example 285, 4-(2-METHOXY-4-(TRIFLUOROMETHYL)PHENYL)-N-(PYRIMIDIN-4-YL)ISOQUINOLINE-7-SULFONAMIDE HYDROCHLORIDE] | 580 nM | 40 nM
23 | CN1CCC=C(c2cc(C(F)(F)F)ccc2-c2cccc3cc(S(=O)(=O)Nc4ccncn4)ccc23)C1 [Example 122] | 492 nM | 40 nM
24 | O=S(=O)(Nc1nccs1)c1ccc2c(-c3ccc(C(F)(F)F)cc3-n3ccnc3)nccc2c1 [Example 229, 1-(2-(1H-IMIDAZOL-1-YL)-4-(TRIFLUOROMETHYL)PHENYL)-N-(THIAZOL-2-YL)ISOQUINOLINE-6-SULFONAMIDE] | 420 nM | 10 nM
25 | COc1ccc(OC)c(-c2nccc3cc(S(=O)(=O)Nc4ccncn4)ccc23)c1 [Example 147, 1-(2,5-DIMETHOXYPHENYL)-N-(PYRIMIDIN-4-YL)ISOQUINOLINE-6-SULFONAMIDE] | 5820 nM | 130 nM
26 | COc1cc(C(F)(F)F)ccc1-c1nccc2cc(S(=O)(=O)Nc3nccs3)cnc12 [Example 291, 8-(2-METHOXY-4-(TRIFLUOROMETHYL)PHENYL)-N-(THIAZOL-2-YL)-1,7-NAPHTHYRIDINE-3-SULFONAMIDE] | 2530 nM | 160 nM
27 | COc1cc(C(F)(F)F)ccc1-c1ncnc2cc(S(=O)(=O)Nc3ncco3)ccc12 [Example 264, 4-(2-METHOXY-4-(TRIFLUOROMETHYL)PHENYL)-N-(OXAZOL-2-YL)QUINAZOLINE-7-SULFONAMIDE] | 1870 nM | 170 nM
28 | O=S(=O)(Nc1ccncn1)c1ccc2c(-c3cc4cc(F)ccc4[nH]3)cccc2c1 [Example 114] | 11300 nM | 820 nM
29 | COc1cc(C#N)ccc1-c1ncc(F)c2cc(S(=O)(=O)Nc3nccs3)ccc12 [Example 214, 1-(4-CYANO-2-METHOXYPHENYL)-4-FLUORO-N-(THIAZOL-2-YL)ISOQUINOLINE-6-SULFONAMIDE] | 211 nM | 20 nM
